Data as given in article PMC12114444, “Biochemical Characterization and Polyester-Binding/Degrading Capability of Two Cutinases from Aspergillus fumigatus” (Microorganisms, 2025).

Test system: AfCutB
Conditions: 30 °C, 5 min; standard assay 0.05 M Tris-HCl pH 8.5 (results text: optimal conditions, optimum pH 9.0)

CCCC(=O)Oc1ccc([N+](=O)[O-])cc1 [p-nitrophenyl butyrate] gave a Km of 6.29 mM.
